According to paper PMC5540273, “Progress towards a public chemogenomic set for protein kinases and a call for contributions” (PLoS ONE, 2017):

Key:
Test in all cases: KINOMEscan competition binding
[1] = target: T1, BMPR2 (Homo sapiens, UniProt Q13873); details: read-out: %Inh BMPR2
T1 sequence (Q13873 27-1038): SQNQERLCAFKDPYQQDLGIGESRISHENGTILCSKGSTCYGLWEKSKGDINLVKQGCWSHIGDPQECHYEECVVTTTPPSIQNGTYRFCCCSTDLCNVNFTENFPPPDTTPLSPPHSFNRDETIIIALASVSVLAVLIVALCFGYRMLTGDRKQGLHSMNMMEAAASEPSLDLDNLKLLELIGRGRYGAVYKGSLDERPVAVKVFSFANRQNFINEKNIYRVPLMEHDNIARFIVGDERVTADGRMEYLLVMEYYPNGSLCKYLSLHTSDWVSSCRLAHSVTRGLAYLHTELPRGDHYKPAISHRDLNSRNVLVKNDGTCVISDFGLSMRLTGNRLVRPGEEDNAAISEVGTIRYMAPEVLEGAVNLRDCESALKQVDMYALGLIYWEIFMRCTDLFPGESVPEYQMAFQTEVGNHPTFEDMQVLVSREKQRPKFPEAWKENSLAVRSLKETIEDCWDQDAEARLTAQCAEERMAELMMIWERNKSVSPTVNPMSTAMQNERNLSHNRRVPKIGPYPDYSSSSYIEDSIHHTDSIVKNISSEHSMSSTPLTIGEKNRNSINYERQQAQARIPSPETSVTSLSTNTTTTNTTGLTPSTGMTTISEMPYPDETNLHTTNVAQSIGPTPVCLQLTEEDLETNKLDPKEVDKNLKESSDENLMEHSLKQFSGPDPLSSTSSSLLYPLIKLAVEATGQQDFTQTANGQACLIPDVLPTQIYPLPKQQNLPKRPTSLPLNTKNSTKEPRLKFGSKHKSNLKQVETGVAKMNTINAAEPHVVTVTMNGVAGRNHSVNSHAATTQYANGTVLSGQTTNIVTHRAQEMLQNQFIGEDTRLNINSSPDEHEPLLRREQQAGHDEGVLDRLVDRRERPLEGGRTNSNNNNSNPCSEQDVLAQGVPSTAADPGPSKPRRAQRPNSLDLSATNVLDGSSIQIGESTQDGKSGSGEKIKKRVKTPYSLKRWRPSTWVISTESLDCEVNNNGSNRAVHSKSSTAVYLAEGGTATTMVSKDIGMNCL

[2] = target: CDK2 (Homo sapiens, UniProt P24941); details: read-out: %Inh CDK2
[3] = target: T2, EPHB3 (Homo sapiens, UniProt P54753); details: read-out: %Inh EPHB3
T2 sequence (P54753 34-998): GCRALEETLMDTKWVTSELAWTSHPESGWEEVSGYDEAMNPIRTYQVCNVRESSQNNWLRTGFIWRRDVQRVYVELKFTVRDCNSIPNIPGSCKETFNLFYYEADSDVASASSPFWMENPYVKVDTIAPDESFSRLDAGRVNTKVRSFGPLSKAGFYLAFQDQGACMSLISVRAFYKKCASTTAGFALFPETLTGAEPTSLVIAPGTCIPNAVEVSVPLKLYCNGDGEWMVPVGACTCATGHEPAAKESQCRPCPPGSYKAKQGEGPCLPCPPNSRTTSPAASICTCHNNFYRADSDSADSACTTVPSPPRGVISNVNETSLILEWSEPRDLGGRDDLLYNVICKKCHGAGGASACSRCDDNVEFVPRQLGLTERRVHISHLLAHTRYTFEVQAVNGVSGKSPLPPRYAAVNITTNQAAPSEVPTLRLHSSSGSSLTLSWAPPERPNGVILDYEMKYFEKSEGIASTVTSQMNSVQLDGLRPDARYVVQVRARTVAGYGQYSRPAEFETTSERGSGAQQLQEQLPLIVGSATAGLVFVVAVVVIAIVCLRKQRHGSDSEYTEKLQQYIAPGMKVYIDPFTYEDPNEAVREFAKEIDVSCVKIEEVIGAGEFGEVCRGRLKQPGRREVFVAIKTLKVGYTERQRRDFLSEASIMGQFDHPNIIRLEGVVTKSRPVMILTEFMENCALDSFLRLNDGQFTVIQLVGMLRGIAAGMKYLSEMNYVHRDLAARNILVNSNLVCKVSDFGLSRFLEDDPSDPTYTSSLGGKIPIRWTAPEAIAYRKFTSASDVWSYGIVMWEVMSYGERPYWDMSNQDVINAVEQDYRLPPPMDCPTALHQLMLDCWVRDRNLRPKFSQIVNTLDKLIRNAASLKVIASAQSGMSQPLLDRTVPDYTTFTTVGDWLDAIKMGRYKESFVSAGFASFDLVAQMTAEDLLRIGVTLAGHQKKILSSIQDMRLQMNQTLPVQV

[4] = target: FGFR4 (Homo sapiens, UniProt P22455); details: read-out: %Inh FGFR4
Chain of FGFR4 (P22455 22-802): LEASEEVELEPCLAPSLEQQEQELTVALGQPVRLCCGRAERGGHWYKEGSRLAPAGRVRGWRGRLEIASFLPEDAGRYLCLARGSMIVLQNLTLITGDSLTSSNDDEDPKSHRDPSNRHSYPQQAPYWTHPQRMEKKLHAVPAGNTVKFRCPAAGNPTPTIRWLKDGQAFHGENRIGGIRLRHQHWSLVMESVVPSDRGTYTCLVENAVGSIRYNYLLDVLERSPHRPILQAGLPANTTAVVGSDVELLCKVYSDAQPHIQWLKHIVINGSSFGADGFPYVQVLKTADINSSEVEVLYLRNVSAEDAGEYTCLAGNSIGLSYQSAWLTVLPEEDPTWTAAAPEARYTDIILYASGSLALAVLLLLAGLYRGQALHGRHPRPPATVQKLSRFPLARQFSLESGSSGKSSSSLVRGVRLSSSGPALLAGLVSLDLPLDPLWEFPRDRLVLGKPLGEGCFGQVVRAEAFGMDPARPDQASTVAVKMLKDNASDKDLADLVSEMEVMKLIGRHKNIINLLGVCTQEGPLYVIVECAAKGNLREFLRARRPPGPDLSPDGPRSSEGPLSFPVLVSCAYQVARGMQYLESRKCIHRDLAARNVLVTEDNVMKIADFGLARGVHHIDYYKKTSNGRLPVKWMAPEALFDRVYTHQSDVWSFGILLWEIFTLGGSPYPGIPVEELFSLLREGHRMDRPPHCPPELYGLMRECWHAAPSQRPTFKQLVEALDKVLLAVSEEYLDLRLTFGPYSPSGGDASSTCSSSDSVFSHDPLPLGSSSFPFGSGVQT

[5] = target: T3, ICK (Homo sapiens, UniProt Q9UPZ9); details: read-out: %Inh ICK
T3 sequence (Q9UPZ9 1-632): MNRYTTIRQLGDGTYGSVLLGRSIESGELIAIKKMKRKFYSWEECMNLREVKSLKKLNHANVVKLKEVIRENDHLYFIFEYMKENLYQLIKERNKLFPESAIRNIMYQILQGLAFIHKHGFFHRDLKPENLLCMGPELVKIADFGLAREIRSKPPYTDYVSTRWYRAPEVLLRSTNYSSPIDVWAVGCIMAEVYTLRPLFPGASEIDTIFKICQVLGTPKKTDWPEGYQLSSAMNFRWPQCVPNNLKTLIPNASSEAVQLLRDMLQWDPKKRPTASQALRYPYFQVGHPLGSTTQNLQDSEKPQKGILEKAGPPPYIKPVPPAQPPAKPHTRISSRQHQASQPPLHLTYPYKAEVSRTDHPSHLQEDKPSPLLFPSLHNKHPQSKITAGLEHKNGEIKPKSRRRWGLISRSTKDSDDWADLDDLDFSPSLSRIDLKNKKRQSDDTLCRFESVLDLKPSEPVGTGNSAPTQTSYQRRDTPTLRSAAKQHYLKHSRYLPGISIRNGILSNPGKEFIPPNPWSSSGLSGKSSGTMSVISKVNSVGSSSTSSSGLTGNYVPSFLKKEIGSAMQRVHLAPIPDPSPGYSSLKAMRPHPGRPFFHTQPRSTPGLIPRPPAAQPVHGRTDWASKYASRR

[6] = target: LOK (Homo sapiens, UniProt O94804); details: read-out: %Inh LOK
Chain of LOK (O94804 whole entry): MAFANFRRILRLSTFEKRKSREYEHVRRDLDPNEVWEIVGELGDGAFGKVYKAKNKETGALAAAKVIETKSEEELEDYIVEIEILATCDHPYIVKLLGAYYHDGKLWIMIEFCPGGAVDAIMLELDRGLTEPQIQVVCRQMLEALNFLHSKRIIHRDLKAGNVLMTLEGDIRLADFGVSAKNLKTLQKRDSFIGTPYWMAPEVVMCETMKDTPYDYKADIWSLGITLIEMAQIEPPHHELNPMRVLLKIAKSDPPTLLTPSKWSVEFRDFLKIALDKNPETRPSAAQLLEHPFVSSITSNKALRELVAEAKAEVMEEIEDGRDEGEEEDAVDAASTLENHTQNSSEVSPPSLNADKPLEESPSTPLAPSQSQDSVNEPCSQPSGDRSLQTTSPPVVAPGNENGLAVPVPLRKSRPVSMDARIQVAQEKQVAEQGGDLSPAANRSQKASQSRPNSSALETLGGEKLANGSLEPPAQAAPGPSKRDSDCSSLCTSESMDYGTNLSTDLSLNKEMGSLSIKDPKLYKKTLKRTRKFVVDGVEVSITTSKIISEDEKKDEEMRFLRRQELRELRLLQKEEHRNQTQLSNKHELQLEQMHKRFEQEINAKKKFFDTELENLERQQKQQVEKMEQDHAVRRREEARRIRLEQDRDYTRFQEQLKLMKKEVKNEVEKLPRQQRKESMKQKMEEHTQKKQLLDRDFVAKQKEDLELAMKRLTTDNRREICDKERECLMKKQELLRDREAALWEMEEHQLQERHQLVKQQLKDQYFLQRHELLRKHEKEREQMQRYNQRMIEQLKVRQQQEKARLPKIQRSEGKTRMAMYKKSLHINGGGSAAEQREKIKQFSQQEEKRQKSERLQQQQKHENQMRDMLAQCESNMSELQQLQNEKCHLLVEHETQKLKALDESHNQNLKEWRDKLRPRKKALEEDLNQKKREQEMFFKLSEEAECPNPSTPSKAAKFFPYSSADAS

Cn1cc(-c2cnc(N)c3c(-c4ccc5c(c4)CCN5C(=O)Cc4ccccc4)csc23)cn1 [UNC10225012A]
inhibition at 1 µM [1]: 6%
inhibition at 1 µM [2]: 0%
inhibition at 1 µM [3]: 4%
inhibition at 1 µM [4]: 0%
inhibition at 1 µM [5]: 100%
inhibition at 1 µM [6]: 98.9%

CS(=O)(=O)Cc1ccc(Nc2nccc(-c3c(-c4cccc(NC(=O)C5CCCCC5)c4)nn4ncccc34)n2)cc1 [UNC10225159A]
inhibition at 1 µM [1]: 24%
inhibition at 1 µM [2]: 0%
inhibition at 1 µM [3]: 5%
inhibition at 1 µM [4]: 6%
inhibition at 1 µM [5]: 14%
inhibition at 1 µM [6]: 81%

Cc1ccc(NC(=O)Nc2cccc(C(F)(F)F)c2)cc1 [UNC10225187A]
inhibition at 1 µM [1]: 1%
inhibition at 1 µM [2]: 0%
inhibition at 1 µM [3]: 0%
inhibition at 1 µM [4]: 0%
inhibition at 1 µM [5]: 0%
inhibition at 1 µM [6]: 0%

COc1cccc(OC)c1C(=O)Nc1cccc(-c2nn3ccccc3c2-c2ccnc(Nc3cccc(F)c3)n2)c1 [UNC10225310A]
inhibition at 1 µM [1]: 0%
inhibition at 1 µM [2]: 0%
inhibition at 1 µM [3]: 8%
inhibition at 1 µM [4]: 0%
inhibition at 1 µM [5]: 0%
inhibition at 1 µM [6]: 90%

O=c1cc(N2CCOCC2)nc2n(Cc3cccc(Cl)c3Cl)c(C3CC3)nn12 [UNC10225469A]
inhibition at 1 µM [1]: 13%
inhibition at 1 µM [2]: 0%
inhibition at 1 µM [3]: 7%
inhibition at 1 µM [4]: 0%
inhibition at 1 µM [5]: 4%
inhibition at 1 µM [6]: 0%
